What all share (assay): relative viability (nuclei count vs DMSO), 5 days (fraction); higher = more cells survive
Compound in the experiment “Zebularine + Linsitinib”: O=c1ncccn1[C@@H]1O[C@H](CO)[C@@H](O)[C@H]1O [Zebularine] + C[C@]1(O)C[C@@H](c2nc(-c3ccc4ccc(-c5ccccc5)nc4c3)c3c(N)nccn32)C1 [Linsitinib] (partner 1 µM)
The method in brief: (§1)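 Medians of duplicate plates are given as relative viability. That measure is the nuclei count in treated wells divided by the count in vehicle wells. Counts were taken on 4× images of lung cancer cell lines in 1536-well plates, 5 days after pin-tool dosing the day after seeding with one drug alone or a fixed anchor-drug dose plus five library-drug doses (not always all listed) in √10 steps.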

Compound in the experiment “BI-D1870 + OSI-027”: CC(C)CCN1c2nc(Nc3cc(F)c(O)c(F)c3)ncc2N(C)C(=O)C1C [BI-D1870] + COc1cccc2cc(-c3nc([C@H]4CC[C@H](C(=O)O)CC4)n4ncnc(N)c34)[nH]c12 [OSI-027] (partner 0.5 µM)
The method in brief:
as §1

Compound in the experiment “Zebularine + Tozasertib”: O=c1ncccn1[C@@H]1O[C@H](CO)[C@@H](O)[C@H]1O [Zebularine] + Cc1cc(Nc2cc(N3CCN(C)CC3)nc(Sc3ccc(NC(=O)C4CC4)cc3)n2)n[nH]1 [Tozasertib] (partner 0.1 µM)
The method in brief:
as §1

Compound in the experiment “BI-D1870 + Navitoclax”: CC(C)CCN1c2nc(Nc3cc(F)c(O)c(F)c3)ncc2N(C)C(=O)C1C [BI-D1870] + CC1(C)CCC(c2ccc(Cl)cc2)=C(CN2CCN(c3ccc(C(=O)NS(=O)(=O)c4ccc(N[C@H](CCN5CCOCC5)CSc5ccccc5)c(S(=O)(=O)C(F)(F)F)c4)cc3)CC2)C1 [Navitoclax] (partner 0.5 µM)
The method in brief:
as §1

For the cell line UMC-11, the relative viability in the experiment with Zebularine + Linsitinib (first compound 1 µM) came to 1.21; in the experiment with Zebularine + Linsitinib (first compound 3.162 µM), 1.02; with Zebularine + Linsitinib (first compound 10 µM), 0.691; in the experiment with Zebularine + Linsitinib (first compound 31.62 µM), 0.574; with Zebularine + Linsitinib (first compound 100 µM), 0.418; in the experiment with BI-D1870 + OSI-027 (first compound 0.04 µM), 0.519. Also, the relative viability with BI-D1870 + OSI-027 (first compound 0.1265 µM) worked out at 0.48; in the experiment with BI-D1870 + OSI-027 (first compound 0.4 µM) it was 0.479; with BI-D1870 + OSI-027 (first compound 1.265 µM), 0.406; with BI-D1870 + OSI-027 (first compound 4 µM) it was 0.16; in the experiment with Zebularine + Tozasertib (first compound 1 µM), 0.191; with Zebularine + Tozasertib (first compound 3.162 µM), 0.192. The relative viability was 0.219 with Zebularine + Tozasertib (first compound 10 µM); 0.213 with Zebularine + Tozasertib (first compound 31.62 µM); 0.207 in the experiment with Zebularine + Tozasertib (first compound 100 µM); 0.287 in the experiment with BI-D1870 + Navitoclax (first compound 0.04 µM); 0.295 with BI-D1870 + Navitoclax (first compound 0.1265 µM); 0.311 with BI-D1870 + Navitoclax (first compound 0.4 µM). For the same cell line, the relative viability was found to be 0.336 with BI-D1870 + Navitoclax (first compound 1.265 µM) and 0.129 in the experiment with BI-D1870 + Navitoclax (first compound 4 µM).

Values taken from the supplement of paper PMC10307832.
